Source: ChEMBL document CHEMBL4373693, “Virtual Screening Approach and Investigation of Structure-Activity Relationships To Discover Novel Bacterial Topoisomerase Inhibitors Targeting Gram-Positive and Gram-Negative Pathogens” (J Med Chem, 2019)
Values after ≈ are worked out from the molar mass of the structure shown.

Assays:
[1] = Inhibition of Escherichia coli DNA topoisomerase 4
Staphylococcus aureus [2] = assay: Antibacterial activity against Staphylococcus aureus; format: functional
Escherichia coli [3] = assay: Antibacterial activity against Escherichia coli; format: functional
Topoisomerase IV = Topoisomerase IV (Staphylococcus aureus, UniProt P0C1S7+P0C1U9); assay: Inhibition of Staphylococcus aureus DNA topoisomerase 4; format: protein-complex assay
Chain of Topoisomerase IV (P0C1U9 whole entry): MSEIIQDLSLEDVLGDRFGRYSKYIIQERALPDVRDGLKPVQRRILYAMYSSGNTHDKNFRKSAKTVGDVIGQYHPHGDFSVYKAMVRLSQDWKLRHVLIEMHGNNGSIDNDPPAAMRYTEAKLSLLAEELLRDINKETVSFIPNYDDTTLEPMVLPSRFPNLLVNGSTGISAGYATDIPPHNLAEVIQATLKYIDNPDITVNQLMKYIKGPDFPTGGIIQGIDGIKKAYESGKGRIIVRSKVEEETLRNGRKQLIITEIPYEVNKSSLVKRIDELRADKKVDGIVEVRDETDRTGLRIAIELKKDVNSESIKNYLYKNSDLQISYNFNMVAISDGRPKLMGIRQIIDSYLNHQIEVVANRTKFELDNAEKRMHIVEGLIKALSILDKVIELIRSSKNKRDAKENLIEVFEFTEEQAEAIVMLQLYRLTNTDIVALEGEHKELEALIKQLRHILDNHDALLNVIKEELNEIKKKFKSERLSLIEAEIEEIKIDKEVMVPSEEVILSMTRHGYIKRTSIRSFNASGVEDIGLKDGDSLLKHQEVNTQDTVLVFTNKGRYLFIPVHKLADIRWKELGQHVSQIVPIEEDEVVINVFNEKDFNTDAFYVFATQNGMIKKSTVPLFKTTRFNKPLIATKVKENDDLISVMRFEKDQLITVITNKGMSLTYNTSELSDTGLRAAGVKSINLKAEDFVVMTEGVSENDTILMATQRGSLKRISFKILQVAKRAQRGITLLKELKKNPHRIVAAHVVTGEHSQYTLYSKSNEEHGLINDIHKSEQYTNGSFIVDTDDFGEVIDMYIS
Chain of Topoisomerase IV (P0C1S7 whole entry): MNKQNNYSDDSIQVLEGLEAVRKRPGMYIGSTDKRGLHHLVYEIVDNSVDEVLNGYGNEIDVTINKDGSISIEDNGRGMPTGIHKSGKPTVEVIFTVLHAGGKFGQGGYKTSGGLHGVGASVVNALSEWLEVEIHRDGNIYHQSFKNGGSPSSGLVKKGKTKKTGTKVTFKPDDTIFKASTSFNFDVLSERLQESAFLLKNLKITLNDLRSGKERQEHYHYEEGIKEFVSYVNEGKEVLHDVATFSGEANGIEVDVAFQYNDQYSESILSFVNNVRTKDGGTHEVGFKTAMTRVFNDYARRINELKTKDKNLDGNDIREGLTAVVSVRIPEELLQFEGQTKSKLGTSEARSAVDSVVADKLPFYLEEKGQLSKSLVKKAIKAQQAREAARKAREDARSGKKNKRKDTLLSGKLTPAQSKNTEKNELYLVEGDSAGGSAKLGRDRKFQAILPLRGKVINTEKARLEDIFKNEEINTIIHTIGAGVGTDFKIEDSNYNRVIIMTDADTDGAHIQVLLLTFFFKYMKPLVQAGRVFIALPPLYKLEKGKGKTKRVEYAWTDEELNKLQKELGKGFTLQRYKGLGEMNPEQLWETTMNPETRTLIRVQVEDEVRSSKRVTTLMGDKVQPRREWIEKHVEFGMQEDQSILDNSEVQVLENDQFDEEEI

DNA gyrase [4] = biological target: DNA gyrase (Staphylococcus aureus, UniProt P0A0K8+P20831); assay: Inhibition of Staphylococcus aureus DNA gyrase; format: protein-complex assay
Chain of DNA gyrase (Staphylococcus aureus, UniProt P0A0K8+P20831) (P0A0K8 whole entry): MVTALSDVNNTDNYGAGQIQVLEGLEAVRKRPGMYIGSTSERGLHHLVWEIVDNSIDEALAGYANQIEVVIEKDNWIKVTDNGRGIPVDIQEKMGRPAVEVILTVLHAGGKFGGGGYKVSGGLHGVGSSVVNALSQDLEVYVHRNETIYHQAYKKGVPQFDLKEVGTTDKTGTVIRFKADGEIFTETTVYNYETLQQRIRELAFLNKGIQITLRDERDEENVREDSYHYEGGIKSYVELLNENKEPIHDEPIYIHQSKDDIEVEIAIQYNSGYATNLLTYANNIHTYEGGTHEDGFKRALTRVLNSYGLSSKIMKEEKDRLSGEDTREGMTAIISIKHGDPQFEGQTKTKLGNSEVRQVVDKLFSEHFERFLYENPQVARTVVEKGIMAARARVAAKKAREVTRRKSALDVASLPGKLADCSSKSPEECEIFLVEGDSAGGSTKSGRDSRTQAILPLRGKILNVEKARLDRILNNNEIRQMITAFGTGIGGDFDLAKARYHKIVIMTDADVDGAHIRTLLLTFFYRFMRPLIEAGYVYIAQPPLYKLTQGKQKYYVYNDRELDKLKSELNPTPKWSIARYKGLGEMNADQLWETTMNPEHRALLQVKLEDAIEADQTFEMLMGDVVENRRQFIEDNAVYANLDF
Chain of DNA gyrase (Staphylococcus aureus, UniProt P0A0K8+P20831) (P20831 whole entry): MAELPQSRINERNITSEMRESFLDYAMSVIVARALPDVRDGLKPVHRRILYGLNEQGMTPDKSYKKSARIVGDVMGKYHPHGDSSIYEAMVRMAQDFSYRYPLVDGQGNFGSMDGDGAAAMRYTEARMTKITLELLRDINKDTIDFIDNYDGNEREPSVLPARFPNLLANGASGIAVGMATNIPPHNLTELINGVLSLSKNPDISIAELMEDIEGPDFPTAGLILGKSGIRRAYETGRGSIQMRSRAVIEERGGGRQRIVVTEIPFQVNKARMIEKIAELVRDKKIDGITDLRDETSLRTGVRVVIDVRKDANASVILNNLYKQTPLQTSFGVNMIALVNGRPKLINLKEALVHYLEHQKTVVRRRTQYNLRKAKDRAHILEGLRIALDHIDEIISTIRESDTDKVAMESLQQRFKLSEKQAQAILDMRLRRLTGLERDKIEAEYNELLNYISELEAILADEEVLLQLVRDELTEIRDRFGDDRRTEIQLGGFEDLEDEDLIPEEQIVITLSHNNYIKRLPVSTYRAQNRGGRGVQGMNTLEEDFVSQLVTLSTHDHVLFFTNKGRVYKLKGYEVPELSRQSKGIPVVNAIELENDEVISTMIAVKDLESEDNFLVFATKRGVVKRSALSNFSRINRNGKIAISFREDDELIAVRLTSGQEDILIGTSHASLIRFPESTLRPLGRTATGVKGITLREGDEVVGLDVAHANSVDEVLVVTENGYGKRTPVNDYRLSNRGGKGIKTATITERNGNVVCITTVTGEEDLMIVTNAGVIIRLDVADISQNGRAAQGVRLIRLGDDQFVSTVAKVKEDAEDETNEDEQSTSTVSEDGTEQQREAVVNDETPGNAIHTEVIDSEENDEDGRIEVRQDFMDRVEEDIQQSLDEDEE

DNA gyrase [5] = biological target: DNA gyrase (Escherichia coli, UniProt P0AES4+P0AES6); assay: Inhibition of Escherichia coli DNA gyrase; format: protein-complex assay
[6] = Selectivity ratio, ratio of IC50 for human HEK293 cells to MIC for Escherichia coli ATCC 25922; format: toxicity; details: read-out: Selectivity Index
Neisseria gonorrhoeae = assay: Antibacterial activity against Neisseria gonorrhoeae ATCC 19424 after 16 to 24 hrs by broth microdilution method; format: functional
HEK293 = assay: Cytotoxicity against human HEK293 cells after 48 hrs by Alamar blue staining-based fluorometric analysis; format: cell-based; details: HEK293, 48 h
[7] = Selectivity ratio, ratio of IC50 for human HepG2 cells to MIC for Staphylococcus aureus ATCC 29213; format: toxicity; details: read-out: Selectivity Index
HT-29 = assay: Cytotoxicity against human HT-29 cells after 24 hrs by resazurin dye based CellTiter-Blue assay; format: cell-based; details: HT-29, 24 h
DNA gyrase subunit A [8] = biological target: DNA gyrase subunit A (Staphylococcus aureus, UniProt P20831); assay: Inhibition of Staphylococcus aureus ATCC 29213 DNA gyrase A assessed as reduction in enzyme-mediated supercoiling of relaxed pBR322 DNA by ethidium bromide staining based gel electrophoresis method
Enterococcus faecium = assay: Antibacterial activity against vancomycin resistant and teicoplanin sensitive Enterococcus faecium APV 00420 after 16 to 24 hrs by broth microdilution method; format: functional
Pseudomonas aeruginosa = assay: Antibacterial activity against Pseudomonas aeruginosa ATCC 27853 after 16 to 24 hrs by CLSI method; format: functional
Enterococcus faecalis = assay: Antibacterial activity against Enterococcus faecalis ATCC 29212 after 16 to 24 hrs by broth microdilution method; format: functional
Escherichia coli [9] = assay: Selectivity ratio of MIC for Escherichia coli ATCC 25922 in presence of 50% human serum to MIC for Escherichia coli ATCC 25922; format: functional
[10] = Selectivity ratio, ratio of IC50 for human HepG2 cells to MIC for Escherichia coli ATCC 25922; format: toxicity; details: read-out: Selectivity Index
Escherichia coli [11] = assay: Antibacterial activity against Escherichia coli ATCC 25922 in presence of 50% human serum after 16 to 24 hrs by broth microdilution method; format: functional
HepG2 = assay: Cytotoxicity against human HepG2 cells after 48 hrs by Alamar blue staining-based fluorometric analysis; format: cell-based; details: HepG2, 48 h
Haemophilus influenzae [12] = assay: Antibacterial activity against quinolone-sensitive Haemophilus influenzae H128 after 16 to 24 hrs by broth microdilution method; format: functional
[13] = biological target: DNA topoisomerase 4 subunit A (Staphylococcus aureus, UniProt P0C1U9); assay: Inhibition of Staphylococcus aureus ATCC 29213 DNA topoisomerase 4 subunit ParC assessed as reduction in decatenation of kinetoplast DNA incubated for 30 mins by ethidium bromide staining based gel electrophoresis method
Chain of DNA topoisomerase 4 subunit A (Staphylococcus aureus, UniProt P0C1U9) (P0C1U9 whole entry): as the sequence (P0C1U9 whole entry) above

DNA gyrase subunit A [14] = biological target: DNA gyrase subunit A (Escherichia coli K-12, UniProt P0AES4); assay: Inhibition of Escherichia coli ATCC 25922 DNA gyrase A assessed as reduction in enzyme-mediated supercoiling of relaxed pBR322 DNA by ethidium bromide staining based gel electrophoresis method
Chain of DNA gyrase subunit A (Escherichia coli K-12, UniProt P0AES4) (P0AES4 whole entry): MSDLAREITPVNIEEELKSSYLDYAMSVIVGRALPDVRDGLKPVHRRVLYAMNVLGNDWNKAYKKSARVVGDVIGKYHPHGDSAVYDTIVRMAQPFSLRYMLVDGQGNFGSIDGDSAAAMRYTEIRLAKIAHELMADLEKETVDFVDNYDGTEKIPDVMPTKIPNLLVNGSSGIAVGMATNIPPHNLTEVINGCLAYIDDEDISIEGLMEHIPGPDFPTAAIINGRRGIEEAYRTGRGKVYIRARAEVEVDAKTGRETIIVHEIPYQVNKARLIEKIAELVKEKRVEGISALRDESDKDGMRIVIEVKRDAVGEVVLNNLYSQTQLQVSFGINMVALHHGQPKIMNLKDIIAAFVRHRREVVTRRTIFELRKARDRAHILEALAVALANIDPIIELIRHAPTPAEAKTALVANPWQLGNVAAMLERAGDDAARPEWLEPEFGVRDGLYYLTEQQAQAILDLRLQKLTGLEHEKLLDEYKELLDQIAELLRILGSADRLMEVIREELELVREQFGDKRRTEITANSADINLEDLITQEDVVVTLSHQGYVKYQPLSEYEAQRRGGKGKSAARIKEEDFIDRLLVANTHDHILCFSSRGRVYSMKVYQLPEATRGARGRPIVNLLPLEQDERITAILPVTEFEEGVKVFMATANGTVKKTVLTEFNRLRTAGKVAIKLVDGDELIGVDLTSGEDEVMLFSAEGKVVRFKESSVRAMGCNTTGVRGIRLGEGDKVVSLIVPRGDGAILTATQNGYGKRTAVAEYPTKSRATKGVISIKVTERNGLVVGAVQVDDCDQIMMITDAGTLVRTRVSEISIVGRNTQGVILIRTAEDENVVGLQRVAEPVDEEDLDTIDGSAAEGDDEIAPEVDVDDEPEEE

[15] = Selectivity ratio, ratio of IC50 for human HEK293 cells to MIC for Staphylococcus aureus ATCC 29213; format: toxicity; details: read-out: Selectivity Index
Staphylococcus aureus [16] = assay: Selectivity ratio of MIC for Staphylococcus aureus BAA-1720 in presence of 50% human serum to MIC for Staphylococcus aureus BAA-1720; format: functional
Staphylococcus aureus [17] = assay: Antibacterial activity against Staphylococcus aureus ATCC 29213 after 16 to 24 hrs by broth microdilution method; format: functional
Staphylococcus aureus [18] = assay: Antibacterial activity against Staphylococcus aureus BAA-1720 after 16 to 24 hrs by broth microdilution method; format: functional
Staphylococcus aureus [19] = assay: Antibacterial activity against Staphylococcus aureus ATCC 29213 in presence of 50% human serum after 16 to 24 hrs by broth microdilution method; format: functional
Staphylococcus aureus [20] = assay: Selectivity ratio of MIC for Staphylococcus aureus ATCC 29213 in presence of 50% human serum to MIC for Staphylococcus aureus ATCC 29213; format: functional
[21] = biological target: T1, DNA topoisomerase 4 subunit A (Escherichia coli K-12, UniProt P0AFI2); assay: Inhibition of Escherichia coli ATCC 25922 DNA topoisomerase 4 subunit ParC assessed as reduction in decatenation of kinetoplast DNA incubated for 30 mins by ethidium bromide staining based gel electrophoresis method
T1 sequence (P0AFI2 whole entry): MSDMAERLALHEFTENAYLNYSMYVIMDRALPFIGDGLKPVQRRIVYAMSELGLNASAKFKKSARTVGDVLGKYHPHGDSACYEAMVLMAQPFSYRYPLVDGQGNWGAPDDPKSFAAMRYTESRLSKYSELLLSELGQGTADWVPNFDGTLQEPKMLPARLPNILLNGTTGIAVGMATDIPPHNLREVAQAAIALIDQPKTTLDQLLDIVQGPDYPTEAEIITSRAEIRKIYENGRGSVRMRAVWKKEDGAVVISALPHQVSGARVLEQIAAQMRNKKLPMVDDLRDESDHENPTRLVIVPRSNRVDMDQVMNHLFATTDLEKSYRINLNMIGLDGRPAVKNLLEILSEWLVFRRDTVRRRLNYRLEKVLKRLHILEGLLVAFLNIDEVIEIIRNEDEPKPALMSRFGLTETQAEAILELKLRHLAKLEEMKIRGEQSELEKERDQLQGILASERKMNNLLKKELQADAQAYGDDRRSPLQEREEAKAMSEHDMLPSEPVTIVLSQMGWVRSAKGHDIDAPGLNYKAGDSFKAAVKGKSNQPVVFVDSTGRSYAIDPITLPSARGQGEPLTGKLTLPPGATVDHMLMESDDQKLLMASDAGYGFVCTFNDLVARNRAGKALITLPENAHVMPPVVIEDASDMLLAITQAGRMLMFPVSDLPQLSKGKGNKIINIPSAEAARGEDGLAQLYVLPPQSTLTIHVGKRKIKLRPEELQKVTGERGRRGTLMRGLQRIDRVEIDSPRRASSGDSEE

[22] = Cytotoxicity against human HCE2 cells incubated for 2 hrs by MTT assay; format: cell-based
Staphylococcus aureus [23] = assay: Antibacterial activity against Staphylococcus aureus BAA-1720 in presence of 50% human serum after 16 to 24 hrs by broth microdilution method; format: functional
Klebsiella pneumoniae = assay: Antibacterial activity against quinolone-sensitive Klebsiella pneumoniae ATCC 700603 after 16 to 24 hrs by broth microdilution method; format: functional
Escherichia coli [24] = assay: Antibacterial activity against Escherichia coli ATCC 25922 after 16 to 24 hrs by broth microdilution method; format: functional
Haemophilus influenzae [25] = assay: Antibacterial activity against quinolone-sensitive Haemophilus influenzae ATCC 49766 after 16 to 24 hrs by broth microdilution method; format: functional

Question: For O=C1COc2ccc(N3C[C@H](CCCN[C@@H]4Cn5c(=O)ccc6ccc(F)c4c65)OC3=O)nc2N1, which IC50 [1] is on record?
Answer: Its IC50 is 30 nM.

Question: What about the MIC90 (Staphylococcus aureus [2]) of the same compound?
Answer: Its MIC90 is 0.016 µg/mL (≈ 0.0334 µM).

Question: And the MIC90 (Escherichia coli [3])?
Answer: The MIC90 was 0.5 µg/mL (≈ 1.04 µM).

Question: And the IC50 (Topoisomerase IV)?
Answer: Its IC50 is 2000 nM.

Question: And the IC50 (DNA gyrase [4])?
Answer: Its IC50 is 8 nM.

Question: What about the IC50 (DNA gyrase [5]) of the same compound?
Answer: The IC50 was 125 nM.

Question: With COc1ccc2cc(F)nc(N3CCN(CC(O)CNc4cc(=O)oc5ccc(F)cc45)CC3)c2c1 (racemic) as the compound, how does the selectivity ratio [6] read?
Answer: The selectivity ratio was 66.

Question: What about the MIC (Neisseria gonorrhoeae) of the same compound?
Answer: Its MIC is at most 0.06 µg/mL.

Question: What about the IC50 (HEK293) of the same compound?
Answer: The IC50 was 66000 nM.

Question: What about the selectivity ratio [7] of the same compound?
Answer: Its selectivity ratio is over 208.

Question: And the IC50 (HT-29)?
Answer: The IC50 was over 100000 nM.

Question: And the IC50 (DNA gyrase subunit A [8])?
Answer: The IC50 was under 100 nM.

Question: What about the MIC (Enterococcus faecium) of the same compound?
Answer: The MIC was 0.12 µg/mL (≈ 0.242 µM).

Question: What about the MIC (Pseudomonas aeruginosa) of the same compound?
Answer: Its MIC is 4 µg/mL (≈ 8.06 µM).

Question: And the MIC (Enterococcus faecalis)?
Answer: Its MIC is 0.25 µg/mL (≈ 0.504 µM).

Question: And the Ratio (Escherichia coli [9])?
Answer: The Ratio was “>=32 - 267”.

Question: And the selectivity ratio [10]?
Answer: The selectivity ratio was 25.

Question: What about the MIC (Escherichia coli [11]) of the same compound?
Answer: The MIC was over 8 µg/mL.

Question: And the IC50 (HepG2)?
Answer: Its IC50 is 25000 nM.

Question: And the MIC (Haemophilus influenzae [12])?
Answer: The MIC was 0.5 µg/mL (≈ 1.01 µM).

Question: And the IC50 [13]?
Answer: The IC50 was under 100 nM.

Question: And the IC50 (DNA gyrase subunit A [14])?
Answer: The IC50 was 40 nM.

Question: And the selectivity ratio [15]?
Answer: The selectivity ratio was over 5500.

Question: What about the Ratio (Staphylococcus aureus [16]) of the same compound?
Answer: The Ratio was “>=32 - 267”.

Question: What about the MIC (Staphylococcus aureus [17]) of the same compound?
Answer: Its MIC is under 0.12 µM.

Question: What about the MIC (Staphylococcus aureus [18]) of the same compound?
Answer: The MIC was 0.03 µg/mL (≈ 0.0604 µM).

Question: What about the MIC (Staphylococcus aureus [19]) of the same compound?
Answer: The MIC was 8 µg/mL.

Question: And the Ratio (Staphylococcus aureus [20])?
Answer: Its Ratio is “>=32 - 267”.

Question: And the IC50 [21]?
Answer: The IC50 was 100 nM.

Question: And the IC50 [22]?
Answer: Its IC50 is over 150000 nM.

Question: What about the MIC (Staphylococcus aureus [23]) of the same compound?
Answer: The MIC was 4 µg/mL.

Question: And the MIC (Klebsiella pneumoniae)?
Answer: The MIC was 4 µg/mL (≈ 8.06 µM).

Question: What about the MIC (Escherichia coli [24]) of the same compound?
Answer: Its MIC is 1 µM (≈ 0.497 µg/mL).

Question: And the MIC (Haemophilus influenzae [25])?
Answer: Its MIC is 0.5 µg/mL (≈ 1.01 µM).
